The values that follow come from ChEMBL document CHEMBL1143196, “Discovery of kinase inhibitors by high-throughput docking and scoring based on a transferable linear interaction energy model” (J Med Chem, 2008).

Structures are written as SMILES.

The target of the first test is Epidermal growth factor receptor (Homo sapiens, UniProt P00533).
Chain of Epidermal growth factor receptor (P00533 whole entry): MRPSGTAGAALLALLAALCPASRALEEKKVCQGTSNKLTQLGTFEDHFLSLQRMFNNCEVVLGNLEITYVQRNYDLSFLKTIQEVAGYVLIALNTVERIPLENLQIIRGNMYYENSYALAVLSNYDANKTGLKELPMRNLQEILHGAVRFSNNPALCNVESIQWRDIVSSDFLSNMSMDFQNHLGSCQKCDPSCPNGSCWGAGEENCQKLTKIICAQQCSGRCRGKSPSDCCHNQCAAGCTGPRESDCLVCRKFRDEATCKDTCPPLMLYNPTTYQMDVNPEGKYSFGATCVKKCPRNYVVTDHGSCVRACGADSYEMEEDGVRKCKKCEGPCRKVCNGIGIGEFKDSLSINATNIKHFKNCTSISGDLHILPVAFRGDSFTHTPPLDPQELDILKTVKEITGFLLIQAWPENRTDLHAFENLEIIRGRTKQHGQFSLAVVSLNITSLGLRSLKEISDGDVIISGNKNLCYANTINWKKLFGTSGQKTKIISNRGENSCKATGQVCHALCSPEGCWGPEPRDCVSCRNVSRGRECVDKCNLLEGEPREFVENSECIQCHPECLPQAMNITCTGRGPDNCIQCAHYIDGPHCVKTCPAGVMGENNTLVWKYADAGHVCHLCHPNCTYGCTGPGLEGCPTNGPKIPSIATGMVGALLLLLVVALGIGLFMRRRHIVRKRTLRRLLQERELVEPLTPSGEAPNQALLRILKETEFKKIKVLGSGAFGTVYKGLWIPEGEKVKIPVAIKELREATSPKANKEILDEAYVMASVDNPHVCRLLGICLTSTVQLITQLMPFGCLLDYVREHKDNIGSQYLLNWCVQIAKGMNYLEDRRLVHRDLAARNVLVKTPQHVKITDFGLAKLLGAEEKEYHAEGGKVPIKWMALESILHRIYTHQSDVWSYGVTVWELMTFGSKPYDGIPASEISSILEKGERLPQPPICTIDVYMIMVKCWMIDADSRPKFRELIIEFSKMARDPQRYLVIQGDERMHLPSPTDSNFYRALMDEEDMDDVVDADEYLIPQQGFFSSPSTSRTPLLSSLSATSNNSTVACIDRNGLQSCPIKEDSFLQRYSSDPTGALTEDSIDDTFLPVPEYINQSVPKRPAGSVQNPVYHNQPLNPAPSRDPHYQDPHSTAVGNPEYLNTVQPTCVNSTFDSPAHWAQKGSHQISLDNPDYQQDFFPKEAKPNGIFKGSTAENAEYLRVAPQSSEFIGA
Experiment: not given
Details: not given
As to `COc1cccc(Nc2ncnc3ccncc23)c1N`, the IC50 (in general, the concentration at which inhibition is half-maximal) was 132 nM.

As for `CN(C)CCCCCNc1c(Br)cccc1Nc1ncnc2ccncc12`, inhibition was half-maximal at 8.51 nM (IC50). The compound `Brc1cccc(Nc2ncnc3ccncc23)c1NCCc1c[nH]cn1` showed an IC50 of 0.912 nM. On the same count and under the same terms, to `CN1CCN(CCCNc2c(Br)cccc2Nc2ncnc3ccncc23)CC1` belongs 5.01 nM; to `COc1ccc2ncnc(Nc3ccccc3)c2c1` [listing 1 of 2 here], 56.2 nM; to `CN(C)c1cc2ncnc(Nc3cccc(Br)c3)c2cc1N`, 162 nM. `CNc1cc2ncnc(Nc3cccc(Br)c3)c2cc1[N+](=O)[O-]` gave an IC50 of 69.2 nM. Against the preceding compound, the IC50 is about 2.3-fold lower. `COc1cc2ncnc(Nc3ccc(Br)cc3)c2cc1OC` showed an IC50 of 0.0724 nM. As to `Brc1cccc(Nc2ncnc3ccncc23)c1NCCCCN1CCOCC1`, the midpoint of inhibition, the IC50, lay at 5.5 nM. On the same count and under the same terms, the value for `CN(CC(O)CO)c1c(Br)cccc1Nc1ncnc2ccncc12` (configuration not stated) was 3.24 nM; that for `CN(C)c1cccc(Nc2ncnc3ccncc23)c1N` was 1820 nM; that for `Brc1cccc(Nc2ncnc3ccncc23)c1NCCN1CCOCC1` was 3.24 nM. With `CNc1ncc2ncnc(Nc3cccc(Br)c3)c2n1`, the IC50 was 0.776 nM. Compared with the last compound, the IC50 is about 4.2-fold lower. In the case of `COc1cc2ncnc(Nc3ccccc3N)c2cn1`, the IC50 was 3720 nM. Still for that read-out and setting: the value for `Brc1cccc(Nc2ncnc3ccncc23)c1NCCCn1ccnc1` was 0.513 nM. As for `NNc1c(Br)cccc1Nc1ncnc2ccncc12`, half-maximal inhibition (IC50) required 7.24 nM. Compound `COc1c(Br)cccc1Nc1ncnc2ccncc12` had an IC50 of 39.8 nM.

As for `CCCOc1cc2ncnc(Nc3cccc(Br)c3)c2cc1OCCC`, 0.174 nM corresponded to half-maximal inhibition (IC50). Compound `Cc1cccc(Nc2ncnc3cnc(NCCN4CCOCC4)nc23)c1` had an IC50 of 2.34 nM.

Compound `Nc1ccccc1Nc1ncnc2cc(Br)ncc12` gave an IC50 of 245 nM. In the case of `O=C(O)CCNc1c(Br)cccc1Nc1ncnc2ccncc12`, the IC50 is 0.617 nM. Same read-out and setting: to `COc1ccc2ncnc(Nc3cccc(Br)c3)c2n1` belongs 4.37 nM; to `Cc1cccc(Nc2ncnc3ccncc23)c1NCCCCN(C)C`, 5.5 nM. Take `Nc1ccccc1Nc1ncnc2ccncc12`: the IC50 is 251 nM. `FC(F)(F)c1cccc(Nc2ncnc3ccccc23)c1` had an IC50 of 589 nM. This IC50 lies about 2.3-fold higher than the previous one. `O=[N+]([O-])c1ccc2ncnc(Nc3cccc(Br)c3)c2c1` gave an IC50 of 912 nM. In turn, `CN(CCO)c1c(Br)cccc1Nc1ncnc2ccncc12` showed an IC50 of 2.63 nM. Against the preceding compound, the IC50 is about 350-fold lower.

The compound `OCCN(CCO)CCNc1c(Br)cccc1Nc1ncnc2ccncc12` showed an IC50 of 9.33 nM.

`Nc1c(Nc2ncnc3ccncc23)cccc1[N+](=O)[O-]` showed an IC50 of 40.7 nM. This IC50 is about 4.4-fold higher than that of the compound before. The same measure, in the same setting: to `Fc1cc2c(Nc3cccc(Br)c3)ncnc2cn1` belongs 126 nM; to `O=[N+]([O-])c1ccc2c(Nc3cccc(I)c3)ncnc2c1`, 550 nM.

In turn, `COc1ccc2ncnc(Nc3ccccc3)c2c1` [listing 2 of 2 here] gave an IC50 of 120 nM. On the same count and under the same terms, the value for `Oc1cc2ncnc(Nc3cccc(Br)c3)c2cc1O` was 0.174 nM. `COc1ccc2ncnc(Nc3cccc(Br)c3)c2c1`: the IC50 is 355 nM. In turn, `Nc1c(O)cccc1Nc1ncnc2ccncc12` returned an IC50 of 70.8 nM. Compound `Brc1cccc(Nc2ncnc3ccncc23)c1` gave an IC50 of 35.5 nM. `Clc1ncc2ncnc(Nc3cccc(Br)c3)c2n1` had an IC50 of 83.2 nM. For the compound `COc1cc2c(Nc3cccc(Br)c3)ncnc2cn1`, inhibition was half-maximal at 2.63 nM (IC50). This IC50 is about 32-fold lower than that of the compound before. The compound `CN(C)c1ccc2c(Nc3cccc(Br)c3)ncnc2n1` had an IC50 of 331 nM. As for `COc1cc2ncnc(Nc3cccc(C(F)(F)F)c3)c2cc1OC`, it took 0.245 nM to reach half-maximal inhibition (IC50). Compared with the last compound, the IC50 is about 1400-fold lower. `Ic1cccc(Nc2ncnc3ccccc23)c1` had an IC50 of 81.3 nM. `Clc1cc2c(Nc3cccc(Br)c3)ncnc2cn1` showed an IC50 of 40.7 nM. On to `O=C(O)CNc1c(Br)cccc1Nc1ncnc2ccncc12`, for which the IC50 was 1.51 nM. This IC50 lies about 27-fold lower than the previous one.

`Fc1ccc2ncnc(Nc3cccc(Br)c3)c2n1` showed an IC50 of 44.7 nM. On the same count and under the same terms, the value for `CN(C)CCN(C)c1c(Br)cccc1Nc1ncnc2ccncc12` was 40.7 nM.

The compound `CN(C)c1ccc2ncnc(Nc3cccc(Br)c3)c2n1` gave an IC50 of 9.77 nM. In turn, `Clc1cccc(Nc2ncnc3ccccc23)c1` gave an IC50 of 23.4 nM. `Brc1cccc(Nc2ncnc3cnc(NCCn4ccnc4)nc23)c1`: the IC50 was 2.34 nM.

`CN(C)c1ccc(Nc2ncnc3ccncc23)c(N)c1`: the IC50 is 4900 nM. Compound `COc1ccc(CNc2cc3c(Nc4cccc(Br)c4)ncnc3cn2)cc1` gave an IC50 of 2.34 nM. Consider `CN(C)CCCCNc1c(Br)cccc1Nc1ncnc2ccncc12`, for which the IC50 is 7.41 nM. As to `COc1cc2ncnc(Nc3ccccc3)c2cc1OC`, the IC50 was 29.5 nM. The same measure, in the same setting: the value for `CNc1ccc2ncnc(Nc3cccc(Br)c3)c2c1` was 4.07 nM. The compound `CC(=O)Nc1ccc2c(Nc3cccc(Br)c3)ncnc2c1` gave an IC50 of 40.7 nM.

`OCC(O)CNc1c(Br)cccc1Nc1ncnc2ccncc12` (configuration not stated) showed an IC50 of 0.933 nM. Still for that read-out and setting: the value for `Brc1cccc(Nc2ncnc3cccnc23)c1` was 34.7 nM; that for `CNc1ccc2ncnc(Nc3cccc(Br)c3)c2n1` was 3.16 nM; that for `CNc1ncc2ncnc(Nc3ccccc3)c2n1` was 13.2 nM. For the compound `Cc1cccc(Nc2ncnc3ccncc23)c1NCCCn1ccnc1`, half-maximal inhibition (IC50) was put at 3.55 nM. This IC50 lies about 3.7-fold lower than the previous one. The same measure, in the same setting: to `CC(=O)Nc1c(Br)cccc1Nc1ncnc2ccncc12` belongs 29.5 nM. As to `COc1ccc(Nc2ncnc3ccncc23)c(N)c1`, the IC50 is 676 nM. Consider `Nc1c(Cl)cccc1Nc1ncnc2ccncc12`, for which inhibition was half-maximal at 120 nM (IC50). Same read-out and setting: the value for `Nc1c(Br)cccc1Nc1ncnc2ccncc12` was 10 nM. Compound `Nc1cc2ncnc(Nc3ccccc3N)c2cn1` gave an IC50 of 5370 nM. `OCCN(CCO)c1c(Br)cccc1Nc1ncnc2ccncc12` showed an IC50 of 12 nM. Compared with the last compound, the IC50 is about 450-fold lower. As to `Cc1cccc(Nc2ncnc3cnc(N)nc23)c1`, 17.4 nM corresponded to half-maximal inhibition (IC50). This IC50 and that of the compound before are within 1.5-fold of each other. `Brc1cccc(Nc2ncnc3ccncc23)c1NCCCN1CCOCC1` showed an IC50 of 1.91 nM. The same measure, in the same setting: the value for `Cc1cccc(Nc2ncnc3ccncc23)c1NCCCN1CCN(C)CC1` was 5.62 nM. On the same count and under the same terms, to `Nc1c(F)cccc1Nc1ncnc2ccncc12` belongs 851 nM.

In turn, `O=C(O)CCCNc1c(Br)cccc1Nc1ncnc2ccncc12` gave an IC50 of 0.282 nM. Still for that read-out and setting: the value for `CN(C)c1ccc2c(Nc3cccc(Br)c3)ncnc2c1` was 11.2 nM; that for `O=S(=O)(O)CCNc1c(Br)cccc1Nc1ncnc2ccncc12` was 1.41 nM.

`Nc1cc(C(F)(F)F)ccc1Nc1ncnc2ccncc12` showed an IC50 of 4790 nM.

`Oc1ccc2c(Nc3cccc(Br)c3)ncnc2c1`: 4.79 nM corresponded to half-maximal inhibition (IC50).

For the compound `OCN(CO)c1c(Br)cccc1Nc1ncnc2ccncc12`, the IC50 was 14.1 nM. For `Fc1c(Br)cccc1Nc1ncnc2ccncc12`, inhibition was half-maximal at 13.2 nM (IC50). Consider `Cc1cccc(Nc2ncnc3cnc(N(C)C)nc23)c1`, for which the IC50 is 4.07 nM. This IC50 lies about 3.2-fold lower than the previous one. Same read-out and setting: to `Nc1cc2c(Nc3cccc(Br)c3)ncnc2cc1Cl` belongs 6.61 nM; to `CN(CC(=O)O)c1c(Br)cccc1Nc1ncnc2ccncc12`, 16.2 nM; to `OCCNc1c(Br)cccc1Nc1ncnc2ccncc12`, 0.245 nM. Same read-out and setting: the value for `Nc1ccc2ncnc(Nc3cccc(Br)c3)c2n1` was 7.76 nM. Regarding `CN(C)CCCNc1c(Br)cccc1Nc1ncnc2ccncc12`, the IC50 was 8.91 nM. As for `CN(C)CCNc1c(Br)cccc1Nc1ncnc2ccncc12`, the IC50 was 45.7 nM. Compared with the last compound, the IC50 is about 5.1-fold higher.

As for `Brc1cccc(Nc2ncnc3ccccc23)c1`, the IC50 is 27.5 nM.

`Nc1cc(Br)ccc1Nc1ncnc2ccncc12` had an IC50 of 25.7 nM. The IC50 values of the last two compounds are within 1.5-fold of each other. Still for that read-out and setting: to `CN(C)c1ccc2ncnc(Nc3cccc(Br)c3)c2c1` belongs 85.1 nM; to `OCCN(CCO)CCCNc1c(Br)cccc1Nc1ncnc2ccncc12`, 1.2 nM.

Test system in another test: not listed separately
Kind of test: cells. The settings on record: T-cell.
The compound `Cc1cccc(Cl)c1Nc1nc2cc(N3CCN(C)CC3)ccc2n2cncc12` came in with an IC50 of 720 nM. `Cc1cccc(Cl)c1Nc1nc2cc3c(cc2n2cncc12)OCO3` yielded an IC50 of 2000 nM. Take `COc1cc2c(cc1NCCN1CCOCC1)nc(Nc1c(C)cccc1Cl)c1cncn12`: half-maximal inhibition (IC50) was put at 280 nM. With `COc1cc2c(cc1OCCN1CCOCC1)nc(Nc1c(C)cccc1Cl)c1cncn12`, the IC50 turned out to be 470 nM. Regarding `Cc1cccc(Cl)c1Nc1nc2ccc(N3CC(C)NC(C)C3)cc2n2cncc12` (configuration not stated), the midpoint of inhibition, the IC50, lay at 340 nM. In turn, `COc1cccc2nc(Nc3c(C)cccc3Cl)c3cncn3c12` showed an IC50 of 2300 nM. Turning to `Cc1cccc(Cl)c1Nc1nc2ccc(N3CCOCC3)cc2n2cncc12`, the IC50 was 780 nM. For `Cc1cccc(Cl)c1Nc1nc2cc(N3CC(C)NC(C)C3)ccc2n2cncc12` (configuration not stated), the IC50 is 570 nM. `CC(=O)Nc1ccc2nc(Nc3c(C)cccc3Cl)c3cncn3c2c1` yielded an IC50 of 1400 nM. Same read-out and setting: to `Cc1cccc(Cl)c1Nc1nc2ccc(N)cc2n2cncc12` belongs 1600 nM; to `COc1cc2nc(Nc3c(C)cccc3Cl)c3cncn3c2cc1OC`, 670 nM; to `CCNc1ccc2nc(Nc3c(C)cccc3Cl)c3cncn3c2c1`, 2200 nM. `COc1ccc2c(c1)nc(Nc1c(C)cccc1Cl)c1cncn12` registered an IC50 of 2600 nM. Compound `COc1cc2nc(Nc3c(C)cccc3Cl)c3cncn3c2cc1N1CC(C)NC(C)C1` (configuration not stated) came in with an IC50 of 760 nM. `Cc1cccc(Cl)c1Nc1nc2cc3c(cc2n2cncc12)OCCO3`: the half-inhibitory concentration (IC50) came out at 2200 nM. Same read-out and setting: the value for `Cc1cccc(Cl)c1Nc1nc2cc(N3CCOCC3)ccc2n2cncc12` was 1000 nM; that for `Cc1cccc(Cl)c1Nc1nc2cc(NCCN(C)C)ccc2n2cncc12` was 520 nM; that for `CCN(CC)c1ccc2c(c1)nc(Nc1c(C)cccc1Cl)c1cncn12` was 1700 nM. `Cc1cccc(Cl)c1Nc1nc2cc(NCCCN(C)C)ccc2n2cncc12` returned an IC50 of 480 nM. On the same count and under the same terms, to `COc1cc2c(cc1NCCN(C)C)nc(Nc1c(F)cccc1Cl)c1cncn12` belongs 240 nM. Compound `Cc1cccc(Cl)c1Nc1nc2ccc(NCCN3CCOCC3)cc2n2cncc12` registered an IC50 of 1300 nM. With `Cc1cccc(Cl)c1Nc1nc2ccc(N3CCNCC3)cc2n2cncc12`, the IC50 was determined as 380 nM. Against the preceding compound, the IC50 is about 3.4-fold lower. On the same count and under the same terms, to `COc1cc2nc(Nc3c(C)cccc3C)c3cncn3c2cc1OC` belongs 1100 nM; to `CCN(CC)c1ccc2nc(Nc3c(C)cccc3Cl)c3cncn3c2c1`, 2600 nM; to `Cc1cccc(Cl)c1Nc1nc2cc(N3CCNCC3)ccc2n2cncc12`, 1000 nM.
